Experimental data: patent US9969699B2, “Cancer cell growth inhibitor, anticancer agent, and method for screening same, as well as novel compound” (Microbial Chemistry Research Foundation, priority 2014, dated 2018)
Like-named read-outs stand apart in the source and are kept apart here.

Key:
NIH3T3 cells = experiment: 2D cell culture step (environment with adhesion scaffold), proliferation of NIH3T3 cells; format: cell-based; conditions: Mus musculus, read-out: IC50 2D cell culture step
Experimental: Note that, as a negative control, the NIH3T3 cells at 2×10^3 cells/100 were seeded to the same plate in a volume of 100 μL per well and cultured at 37° C. in the presence of 5% CO2 for 3 days without the addition of the test substance.
Note that, Dulbecco's Modified Eagle Medium supplemented with 5% FBS was used for the culture.
A cell proliferation inhibition rate in the 2D cell culture step was calculated according to (Expression 2) below. Cell proliferation inhibition rate(%)=(1−D/E)×100 (Expression 2)
In the (Expression 2), D denotes the number of viable NIH3T3 cells when the test substance was added, and E denotes the number of viable NIH3T3 cells when the test substance was not added.

NIH3T3/EGFR vIII cells = experiment: 3D cell culture step (environment without adhesion scaffold), proliferation of NIH3T3/EGFR vIII cells; format: cell-based, mouse; conditions: for cell proliferation inhibiting activity compared with AG1478, Gefitinib and Erlotinib: 3D cell culture step; for IC50: Mus musculus, 72 h, NIH3T3/EGFR vIII cells, Ultra Low Attachment plate, 3 days, […]-GLO
[1] = Acute toxicity test, intraperitoneal administration; format: in vivo, ICR mice; conditions: for Organ weight Heart / Organ weight Kidney (Left) / Organ weight Kidney (Right) / Organ weight Liver / Organ weight Lung / Organ weight Spleen / Organ weight Thymus: two weeks after
Excerpt: Two-weeks after the compounds represented by the Structural Formula (1) at the above concentrations were intraperitoneally administered, the mice were dissected and organs thereof were weighed.
Two-weeks after the compounds represented by the Structural Formula (8) at the above concentrations were intraperitoneally administered, the mice were dissected and organs thereof were weighed.

[2] = tested on: NIH3T3/EGFR vIII cell-transplanted tumor
[3] = Acute toxicity test, oral administration; format: in vivo, ICR mice; conditions: for Organ weight Heart / Organ weight Kidney (Left) / Organ weight Kidney (Right) / Organ weight Liver / Organ weight Lung / Organ weight Spleen / Organ weight Thymus: two weeks after
Excerpt: Two-weeks after the compounds represented by the Structural Formula (1) at the above concentrations were orally administered, the mice were dissected and organs thereof were weighed.
Two-weeks after the compounds represented by the Structural Formula (8) at the above concentrations were orally administered, the mice were dissected and organs thereof were weighed.

[4] = 72 h, NIH3T3 cells, TC-treated plate, 3 days, […]-GLO
[5] = 0.098 mg/kg/0.2 mL, intraperitoneally once
[6] = 0.195 mg/kg/0.2 mL, intraperitoneally once
[7] = 0.39 mg/kg/0.2 mL, intraperitoneally once
[8] = 0.78 mg/kg/0.2 mL, intraperitoneally once
[9] = 1.56 mg/kg/0.2 mL, intraperitoneally once
[10] = 3.125 mg/kg/0.2 mL, intraperitoneally once
[11] = 6.25 mg/kg/0.2 mL, intraperitoneally once
[12] = 12.5 mg/kg/0.2 mL, intraperitoneally once
[13] = 25 mg/kg/0.2 mL, intraperitoneally once
[14] = 50 mg/kg/0.4 mL, intraperitoneally once
[15] = 30 mg/kg intraperitoneally once a day, day 1 to day 17
[16] = 0.098 mg/kg/0.2 mL, orally once

Nc1ccc(Cl)cc1-c1nc2ccccc2[nH]c1=O [Structural Formula (6), 3-(2-amino-5-chlorophenyl)hydroquinoxalin-2-one]
IC50 (NIH3T3 cells; [4]): > 10 µM
cell proliferation inhibiting activity compared with AG1478, Gefitinib and Erlotinib (NIH3T3/EGFR vIII cells): more significant cell proliferation inhibiting activity
IC50 (NIH3T3/EGFR vIII cells): 0.014 µM

CCNc1ccccc1-c1nc2ccccc2[nH]c1=O [Structural Formula (11), 3-[2-(ethylamino)phenyl]-2(1H)-quinoxalinone]
IC50 (NIH3T3 cells; [4]): > 10 µM
IC50 (NIH3T3/EGFR vIII cells): > 10 µM

O=C(O)CCCC(=O)Nc1ccc(Br)cc1-c1nc2ccccc2[nH]c1=O [Structural Formula (5), 4-{N-[4-bromo-2-(3-oxo(4-hydroquinoxalin-2-yl))phenyl]carbamoyl}butanoic acid]
IC50 (NIH3T3 cells; [4]): > 10 µM
IC50 (NIH3T3/EGFR vIII cells): 0.4 µM

C#Cc1cccc(Nc2ncnc3cc(OCCOC)c(OCCOC)cc23)c1 [Erlotinib, reference compound]
IC50 (NIH3T3 cells; NIH3T3, 72 h): 50 µM

CNc1ccc(Br)cc1-c1nc2ccccc2[nH]c1=O [Structural Formula (10), 3-[5-bromo-2-(methylamino)phenyl]-2(1H)-quinoxalinone]
IC50 (NIH3T3 cells; [4]): > 10 µM
IC50 (NIH3T3/EGFR vIII cells): > 10 µM

Nc1ccc(F)cc1-c1nc2ccccc2[nH]c1=O [Structural Formula (7), 3-(2-Amino-5-fluorophenyl)-2(1H)-quinoxalinone]
IC50 (NIH3T3 cells; [4]): > 10 µM
IC50 (NIH3T3/EGFR vIII cells): 0.34 µM

Cn1c(=O)c(-c2ccccc2N)nc2ccccc21 [Structural Formula (13), 3-(2-aminophenyl)-1-methyl-2(1H)-quinoxalinone]
IC50 (NIH3T3 cells; [4]): > 10 µM
IC50 (NIH3T3/EGFR vIII cells): > 10 µM

Cc1ccc2nc(-c3cc(Br)ccc3N)c(=O)[nH]c2c1 [Structural Formula (2), 3-(2-amino-5-bromophenyl)-7-methylhydroquinoxalin-2-one]
IC50 (NIH3T3 cells; [4]): > 10 µM
IC50 (NIH3T3/EGFR vIII cells): 0.1 µM

Nc1ccccc1-c1nc2ccccc2[nH]c1=O [Structural Formula (9), 3-(2-aminophenyl)-2(1H)-quinoxalinone]
IC50 (NIH3T3 cells; [4]): > 10 µM
IC50 (NIH3T3/EGFR vIII cells): > 10 µM

O=C(Nc1ccc(Br)cc1-c1nc2ccccc2[nH]c1=O)c1ccccc1 [Structural Formula (15)]
IC50 (NIH3T3 cells; [4]): > 10 µM
IC50 (NIH3T3/EGFR vIII cells): > 10 µM

Nc1ccc(I)cc1-c1nc2ccccc2[nH]c1=O [Structural Formula (8), 3-(2-Amino-5-iodophenyl)-2(1H)-quinoxalinone]
Organ weight Heart [1, 5]: 118.0 mg
Organ weight Kidney (Left) [1, 5]: 160.0 mg
Organ weight Kidney (Right) [1, 5]: 172.0 mg
Organ weight Liver [1, 5]: 1476.0 mg
Organ weight Lung [1, 5]: 165.0 mg
Organ weight Spleen [1, 5]: 176.0 mg
Organ weight Thymus [1, 5]: 59.0 mg
Organ weight Heart [1, 6]: 106.0 mg
Organ weight Kidney (Left) [1, 6]: 174.0 mg
Organ weight Kidney (Right) [1, 6]: 181.0 mg
Organ weight Liver [1, 6]: 1442.0 mg
Organ weight Lung [1, 6]: 166.0 mg
Organ weight Spleen [1, 6]: 98.0 mg
Organ weight Thymus [1, 6]: 66.0 mg
Organ weight Heart [1, 7]: 108.0 mg
Organ weight Kidney (Left) [1, 7]: 146.0 mg
Organ weight Kidney (Right) [1, 7]: 158.0 mg
Organ weight Liver [1, 7]: 1234.0 mg
Organ weight Lung [1, 7]: 151.0 mg
Organ weight Spleen [1, 7]: 69.0 mg
Organ weight Thymus [1, 7]: 47.0 mg
Organ weight Heart [1, 8]: 110.0 mg
Organ weight Kidney (Left) [1, 8]: 177.0 mg
Organ weight Kidney (Right) [1, 8]: 181.0 mg
Organ weight Liver [1, 8]: 1324.0 mg
Organ weight Lung [1, 8]: 163.0 mg
Organ weight Spleen [1, 8]: 127.0 mg
Organ weight Thymus [1, 8]: 60.0 mg
Organ weight Heart [1, 9]: 125.0 mg
Organ weight Kidney (Left) [1, 9]: 161.0 mg
Organ weight Kidney (Right) [1, 9]: 179.0 mg
Organ weight Liver [1, 9]: 1738.0 mg
Organ weight Lung [1, 9]: 183.0 mg
Organ weight Spleen [1, 9]: 158.0 mg
Organ weight Thymus [1, 9]: 94.0 mg
Organ weight Heart [1, 10]: 120.0 mg
Organ weight Kidney (Left) [1, 10]: 172.0 mg
Organ weight Kidney (Right) [1, 10]: 175.0 mg
Organ weight Liver [1, 10]: 1710.0 mg
Organ weight Lung [1, 10]: 165.0 mg
Organ weight Spleen [1, 10]: 132.0 mg
Organ weight Thymus [1, 10]: 60.0 mg
Organ weight Heart [1, 11]: 120.0 mg
Organ weight Kidney (Left) [1, 11]: 158.0 mg
Organ weight Kidney (Right) [1, 11]: 178.0 mg
Organ weight Liver [1, 11]: 1641.0 mg
Organ weight Lung [1, 11]: 168.0 mg
Organ weight Spleen [1, 11]: 124.0 mg
Organ weight Thymus [1, 11]: 53.0 mg
Organ weight Heart [1, 12]: 108.0 mg
Organ weight Kidney (Left) [1, 12]: 150.0 mg
Organ weight Kidney (Right) [1, 12]: 149.0 mg
Organ weight Liver [1, 12]: 1356.0 mg
Organ weight Lung [1, 12]: 165.0 mg
Organ weight Spleen [1, 12]: 111.0 mg
Organ weight Thymus [1, 12]: 78.0 mg
Organ weight Heart [1, 13]: 108.0 mg
Organ weight Kidney (Left) [1, 13]: 149.0 mg
Organ weight Kidney (Right) [1, 13]: 155.0 mg
Organ weight Liver [1, 13]: 1564.0 mg
Organ weight Lung [1, 13]: 155.0 mg
Organ weight Spleen [1, 13]: 138.0 mg
Organ weight Thymus [1, 13]: 103.0 mg
Organ weight Heart [1, 14]: 120.0 mg
Organ weight Kidney (Left) [1, 14]: 150.0 mg
Organ weight Kidney (Right) [1, 14]: 152.0 mg
Organ weight Liver [1, 14]: 1551.0 mg
Organ weight Lung [1, 14]: 166.0 mg
Organ weight Spleen [1, 14]: 98.0 mg
Organ weight Thymus [1, 14]: 66.0 mg
abnormalities ([1]; intraperitoneally once, any doses (0.098 to 50 mg/kg)): no abnormalities were found at any doses
autopsy findings ([1]; mouse, in vivo, ip): slightly lighter livers, and slightly lighter or heavier spleens were found at some doses
IC50 (NIH3T3 cells; [4]): > 10 µM
cell proliferation inhibiting activity compared with AG1478, Gefitinib and Erlotinib (NIH3T3/EGFR vIII cells): more significant cell proliferation inhibiting activity
IC50 (NIH3T3/EGFR vIII cells): 0.01 µM
tumor weight versus negative control group ([2]; 30 mg/kg intraperitoneally once a day, 17 days after transplantation, t<0.05): significantly different
mouse body weight (weight loss) [2, 15]: weight loss was not observed
toxicity [2, 15]: no toxicity
tumor proliferation inhibiting activity [2, 15]: exhibited the tumor proliferation inhibiting activity
tumor proliferation inhibiting activity compared with Gefitinib ([2]; 30 mg/kg intraperitoneally vs Gefitinib 100 mg/kg orally): comparable
Organ weight Heart [3, 16]: 124.0 mg
Organ weight Kidney (Left) [3, 16]: 165.0 mg
Organ weight Kidney (Right) [3, 16]: 181.0 mg
Organ weight Liver [3, 16]: 1322.0 mg
Organ weight Lung [3, 16]: 182.0 mg
Organ weight Spleen [3, 16]: 125.0 mg
Organ weight Heart ([3]; 6.25 mg/kg/0.2 mL, orally once): 119.0 mg
Organ weight Lung ([3]; 6.25 mg/kg/0.2 mL, orally once): 171.0 mg
Organ weight Thymus ([3]; 6.25 mg/kg/0.2 mL, orally once): 74.0 mg
Organ weight Heart ([3]; 12.5 mg/kg/0.2 mL, orally once): 111.0 mg
Organ weight Kidney (Left) ([3]; 12.5 mg/kg/0.2 mL, orally once): 150.0 mg
Organ weight Kidney (Right) ([3]; 12.5 mg/kg/0.2 mL, orally once): 167.0 mg
Organ weight Liver ([3]; 12.5 mg/kg/0.2 mL, orally once): 1375.0 mg
Organ weight Lung ([3]; 12.5 mg/kg/0.2 mL, orally once): 159.0 mg
Organ weight Spleen ([3]; 12.5 mg/kg/0.2 mL, orally once): 168.0 mg
Organ weight Thymus ([3]; 12.5 mg/kg/0.2 mL, orally once): 90.0 mg
Organ weight Heart ([3]; 25 mg/kg/0.2 mL, orally once): 110.0 mg
Organ weight Kidney (Left) ([3]; 25 mg/kg/0.2 mL, orally once): 140.0 mg
Organ weight Kidney (Right) ([3]; 25 mg/kg/0.2 mL, orally once): 152.0 mg
Organ weight Liver ([3]; 25 mg/kg/0.2 mL, orally once): 1184.0 mg
Organ weight Lung ([3]; 25 mg/kg/0.2 mL, orally once): 163.0 mg
Organ weight Spleen ([3]; 25 mg/kg/0.2 mL, orally once): 92.0 mg
Organ weight Thymus ([3]; 25 mg/kg/0.2 mL, orally once): 39.0 mg
Organ weight Heart ([3]; 50 mg/kg/0.4 mL, orally once): 116.0 mg
Organ weight Kidney (Left) ([3]; 50 mg/kg/0.4 mL, orally once): 158.0 mg
Organ weight Kidney (Right) ([3]; 50 mg/kg/0.4 mL, orally once): 175.0 mg
Organ weight Liver ([3]; 50 mg/kg/0.4 mL, orally once): 1331.0 mg
Organ weight Lung ([3]; 50 mg/kg/0.4 mL, orally once): 176.0 mg
Organ weight Spleen ([3]; 50 mg/kg/0.4 mL, orally once): 133.0 mg
Organ weight Thymus ([3]; 50 mg/kg/0.4 mL, orally once): 87.0 mg
autopsy findings ([3]; mouse, in vivo, po): slightly lighter livers and slightly heavier spleens were found at some doses
abnormalities ([3]; orally once, any doses (0.098 to 50 mg/kg)): no abnormalities were found at any doses

CC(=O)Nc1ccc(Br)cc1-c1nc2ccccc2[nH]c1=O [Structural Formula (3), N-[4-bromo-2-(3-oxo(4-hydroquinoxalin-2-yl))phenyl]acetamide]
IC50 (NIH3T3 cells; [4]): > 10 µM
IC50 (NIH3T3/EGFR vIII cells): 0.5 µM

CCOC(=O)Cn1c(=O)c(-c2cc(Br)ccc2N)nc2ccccc21 [Structural Formula (14), ethyl 2-[3-(2-amino-5-bromophenyl)-2-oxohydroquinoxalinyl]acetate]
IC50 (NIH3T3 cells; [4]): > 10 µM
IC50 (NIH3T3/EGFR vIII cells): 10 µM

O=c1[nH]c2ccccc2nc1-c1ccccc1NCc1ccc(F)cc1 [Structural Formula (12), 3-{2-[(4-fluorobenzyl)amino]phenyl}-2(1H)-quinoxalinone]
IC50 (NIH3T3 cells; [4]): > 10 µM
IC50 (NIH3T3/EGFR vIII cells): > 10 µM

Cc1ccc(N)c(-c2nc3ccccc3[nH]c2=O)c1 [Structural Formula (4), 3-(2-amino-5-methylphenyl)hydroquinoxalin-2-one]
IC50 (NIH3T3 cells; [4]): > 10 µM
IC50 (NIH3T3/EGFR vIII cells): 0.5 µM
